Earlier results in patent US20020035131A1, “Regimen and kit for amelioration of premature ejaculation” (Pentech Pharmaceuticals, Inc., priority 1999, published 2002).

Test system: patients treated for premature ejaculation
Details: cited from earlier work

For `CN[C@H]1CC[C@@H](c2ccc(Cl)c(Cl)c2)c2ccccc21` [sertraline], the “patients who managed to ejaculate during sexual intercourse” value (25 mg sertraline/day, study group of 46) is given as “all patients”, the “men unable to ejaculate after prolonged sexual intercourse” value (50 mg sertraline/day, 4/46) is given as 9% and the “patients unable to ejaculate after prolonged sexual intercourse” value (100 mg sertraline/day, 10/46) is given as 22%.
